What was measured:
[1] = system: rat hepatocytes; assay: In vitro metabolism of Compound 2 in rat cryopreserved hepatocytes; format: in vitro ADME; parameters: key to Relative abundance of metabolite of Compound 2, Rat: ND Not detected.; trace: Trace: observed by HPLC/MS measurements only.; + Minor as assessed by HPLC/UV measurements; ++ moderate as assessed by HPLC/UV measurements; +++ major as assessed by HPLC/UV measurements.; * m/z 593 and m/z 505 co-eluted in rabbit hepatocytes.; ** m/z 591 c and m/z 593 were merged in human hepatocytes and Hepatopack.; *** m/z 607 and m/z 751 b were merged in rabbit hepatocytes; details: for metabolite of Compound 2 observed in rat hepatocyte incubations: 10 μM Compound 2, 7.5×10^5 cells/mL, 1 and 4 hrs composite
Description: (§1) Male CD-1 mouse hepatocytes (lot YHL), male Wistar-Han rat hepatocytes (Celsius; product number: M000065; lot: SLA), female New Zealand rabbit hepatocytes (lot 1510147), male cryopreserved cynomolgus monkey hepatocytes (Celsius; product number: M00305; lot: DNB) and mixed-gender cryopreserved human hepatocytes (Bioreclamation; product number: S01988; lot: DCM) were obtained for the hepatocyte in-vitro assessments.
(§2) At time 0 hrs 550 μL aliquots were removed from incubations and quenched with 5 volumes of ACN containing 0.1% formic acid. At 1 and 4 hrs, 275 μL aliquots were removed and quenched as above; these were combined in the same tube to prepare a composite sample. For all hepatocyte experiments, samples were processed by centrifugation at 1900×g for 5 minutes, and then the supernatant was transferred to clean glass tubes and evaporated to dryness under a stream of N2 using a Turbovap at 37° C. Sample residues were reconstituted in mobile phase prior to analysis by HPLC/UV/MS^n.
(§3) Samples were analyzed by HPLC/UV/MS^n using a Thermo Orbitrap Elite mass spectrometer in conjunction with a Thermo Open Accela UHPLC system. A 3.0×150 mm, 2.5 μm Acquity CSH C18 HPLC column (Waters) was heated to 45° C. for separation of analytes. The mobile phase was a gradient of A): water containing 0.1% formic acid, and B): acetonitrile. The flow rate was 450 μL/min, and the following gradient program was utilized: […]
(§4) UV absorbance was monitored with a photo-diode array detector from 220-450 nm. The mass spectrometer was operated in positive-ion mode with a HESI ion source at a potential of 3.0 kV, and capillary and source heater temperatures of 380 and 300° C., respectively. Sheath, auxiliary, and sweep gas flows were set to 45, 10, and 2 units, respectively. Full scan mass spectra were acquired over the range 120-1200 m/z at a resolving power of 30,000 (specified at m/z 400). Data-dependent MS^n spectra were acquired in an automated fashion at 15,000 resolving power using CID and HCD fragmentation with normalized collision energy settings of 28 and 65 V, respectively.
(§5) Metabolites were characterized by comparisons of mass spectral fragmentation patterns with that of a Compound 2 standard. All HPLC/UV/MS^n data were processed using Xcalibur v. 2.2, and integrated UV peak areas were subjected to weighted UV binning procedures utilizing an Excel template.

[2] = system: rabbit hepatocytes; assay: In vitro metabolism of Compound 2 in rabbit cryopreserved hepatocytes; format: in vitro ADME; parameters: key to Relative abundance of metabolite of Compound 2, Rabbit: ND Not detected.; trace: Trace: observed by HPLC/MS measurements only.; + Minor as assessed by HPLC/UV measurements; ++ moderate as assessed by HPLC/UV measurements; +++ major as assessed by HPLC/UV measurements.; * m/z 593 and m/z 505 co-eluted in rabbit hepatocytes.; ** m/z 591 c and m/z 593 were merged in human hepatocytes and Hepatopack.; *** m/z 607 and m/z 751 b were merged in rabbit hepatocytes; details: for metabolite of Compound 2 observed in rabbit hepatocyte incubations: 10 μM Compound 2, 7.5×10^5 cells/mL, 1 and 4 hrs composite
Description: as §1, §2, §3, §4, §5

[3] = system: human hepatocytes; assay: In vitro metabolism of Compound 2 in human cryopreserved hepatocytes; format: in vitro ADME; parameters: key to Relative abundance of metabolite of Compound 2, Human: ND Not detected.; trace: Trace: observed by HPLC/MS measurements only.; + Minor as assessed by HPLC/UV measurements; ++ moderate as assessed by HPLC/UV measurements; +++ major as assessed by HPLC/UV measurements.; * m/z 593 and m/z 505 co-eluted in rabbit hepatocytes.; ** m/z 591 c and m/z 593 were merged in human hepatocytes and Hepatopack.; *** m/z 607 and m/z 751 b were merged in rabbit hepatocytes; details: for metabolite of Compound 2 observed in human hepatocyte incubations: 10 μM Compound 2, 7.5×10^5 cells/mL, 1 and 4 hrs composite
Description: as §1, §2, §3, §4, §5

[4] = Metabolites of Compound 2 in rat bile following a 1.0 mg/kg IV bolus dose; format: in vivo; details: 1.0 mg/kg IV bolus dose of Compound 2, bile duct cannulated rats, pooled 0-24 hrs
Description: Plasma and bile samples were obtained from a bile duct cannulated rat experiment (Study PK-0111) in which a 1.0 mg/kg IV bolus dose was administered to fed male rats (N=3). No control plasma was available from this experiment.
Bile samples (0-3, 3-7, and 7-24 hrs) from individual animals were pooled in proportion to the amount collect in each interval. Then 0.5 mL of each individual pool was combined to prepare a composite sample for analysis.
Pooled plasma and bile samples were extracted with ACN containing 0.1% formic acid, and after centrifugation at 1900×g, the supernatant was transferred to clean tubes and evaporated under N2 in a Turbovap set at 37° C. Residues were reconstituted in mobile phase (5:95 v:v ACN:0.1% aqueous formic acid) prior to analysis by HPLC/UV/MS^n.
as §3, §4, §5

metabolite of Compound 2 observed in rat hepatocyte incubations [1] | Relative abundance of metabolite of Compound 2, Rat ([1]; rat cryopreserved hepatocytes, HPLC/UV/MS) | metabolite of Compound 2 observed in rabbit hepatocyte incubations [2] | Relative abundance of metabolite of Compound 2, Rabbit ([2]; rabbit cryopreserved hepatocytes, HPLC/UV/MS) | metabolite of Compound 2 observed in human hepatocyte incubations [3] | Relative abundance of metabolite of Compound 2, Human ([3]; human cryopreserved hepatocytes, HPLC/UV/MS) | detected in rat bile [4] | detected in rat bile ([4]; listed as m/z 331) | metabolite of Compound 2 observed in human hepatocyte incubations ([3]; listed as m/z 751b) | detected in rat bile ([4]; listed as m/z 751b) | Compound
observed in all hepatocyte incubations | trace | observed in all hepatocyte incubations | trace | observed in all hepatocyte incubations | + | observed | detected |  |  | C[C@]1(c2ccc(Cl)cn2)Oc2cccc(C3CCNCC3)c2O1 [Metabolite 331]
observed in all hepatocyte incubations |  | observed in all hepatocyte incubations |  | observed in all hepatocyte incubations |  | observed |  | most abundant metabolites | detected | C[C@]1(c2ccc(Cl)cn2)Oc2cccc(C3CCN(Cc4nc5ccc(C(=O)O[C@@H]6O[C@H](C(=O)O)[C@@H](O)[C@H](O)[C@H]6O)cc5n4C[C@@H]4CCO4)CC3)c2O1 [Metabolite 751b]

Source: patent US12065434B2, “Metabolites of GLP1R agonists” (Pfizer Inc., priority 2020, dated 2024)
